Test results as given in article PMC10976160, “Comparative Pharmacokinetics Research of 13 Bioactive Components of Jieyu Pills in Control and Attention Deficit Hyperactivity Disorder Model Rats Based on UPLC-Orbitrap Fusion MS” (Molecules, 2024).
Read-outs that look alike come from different tables or passages of the source.

Assay: Pharmacokinetics in control rats after gavage of JYPs
Assay type: in vivo, Sprague Dawley (SD) rats
Details: for half-life / Tmax / AUC(0-inf) / AUC(0-t) / Cmax / MRT inf / MRT last: male, rat, plasma; for Tmax: po; for MRT inf: read-out: MRT(0-∞); for MRT last: read-out: MRT(0-t)
Description: According to the established method for the analysis of serum biological samples, the pharmacokinetics of various components of rat serum were investigated after the administration of different dosages of JYPs to control rats.
For the control experiment, healthy male Sprague Dawley (SD) rats of SPF grade ([…] ± 20 g) were purchased from Sipeifu (Beijing) Biotechnology Co., Ltd. (Beijing, China), Animal Quality Certificate No. 110324220102348616. For the ADHD model rats, healthy male SHR rats of SPF grade, weighing 220 ± 20 g, were purchased from SBF (Beijing) Biotechnology Co., Ltd. (Beijing, China), License No. SCXK (Yu) 2019-0010. The animals were accommodated in the Animal Center of Henan University of Traditional Chinese Medicine, which successfully underwent an ethical audit with ethics number DWLL202208003. The animals were bred under controlled conditions at a temperature of 24 °C and a relative humidity of 50 ± 2%. Before the experiment, the animals abstained from eating for 12 h and had unrestricted access to water. The feeding and experimental research conducted on the experimental animals adhered to the laws outlined in the Management of Experimental Animals in Henan Province.
JYPs were ground into a fine powder and sieved through 60-mesh sieves; then, 20 g of fine JYP powder was taken, having been weighed precisely. A precise volume of 50 mL of pure water was added and mixed well to prepare a 0.4 g/mL suspension solution of JYPs, which was then stored in the refrigerator at 4 °C.
This study involved 24 healthy male SD rats with a body mass of 220 ± 20 g and 24 healthy male ADHD rats with a body mass of 220 ± 20 g. Subjects abstained from food for a duration of 12 h before the experiment and consumed water without restriction. Both kinds of rats were randomly divided into four groups: a blank group, given an equal dose of water intragastrically, and 3 different administration groups: rats given the equivalent human dose of JYPs by gavage in doses of 1.080 g/kg/d, 2.160 g/kg/d, and 4.320 g/kg/d. Tail vein blood was collected at 0.083, 0.25, 0.5, 0.75, 1, 1.5, 2, 3, 4, 6, 8, 12, 18, and 24 h after dosing. About 0.5 mL of blood was collected in sodium heparin centrifugal tubes, then centrifuged at 4 °C for 10 min at a speed of 3500r/min. We took the upper layer and placed it at −80 °C for preservation.
We took 200 μL of plasma, added 600 μL of methanol solution and 50 μL of internal standard (100 ng/mL), and subjected it to shaking for 5 min, followed by centrifugation at 4 °C at 12,000 r/min for 10 min. The supernatant was collected and allowed to dry, then reconstituted with 50 μL of 50% methanol and centrifuged at 4 °C at 14,000 r/min for a further 10 min. The supernatant after this process was taken as the test solution. A volume of 5 μL was used for UPLC-MS analysis. The drug concentration in plasma was calculated with the aid of the internal standard.
Chromatographic conditions: Hypersil GOLD (100 × 2.1 mm, 1.9 μm) column; column temperature 35 °C; mobile phase acetonitrile (A)/0.1% formic acid aqueous solution (B); gradient elution; gradient elution program: 0–0.5 min (95% B–95% B), 0.5–8 min (95% B–50% B), 8–14 min (50% B–20% B), 14–20 min (20% B–5% B), 20–22 min (5% B–5% B), 22–25 min (95% B–95% B); flow rate 0.2 mL/min; injection volume 5 μL.

[1] = Sprague Dawley, oral JYPs, range over compounds and doses, read-out: half-life (t1/2)
[2] = Sprague Dawley, oral JYPs, read-out: peak time (Tmax)
[3] = Sprague-Dawley, 1.08 g/kg/day, oral JYPs low dose 1.080 g/kg/d (1st of 3 values)
[4] = Sprague-Dawley, 1.08 g/kg/day, oral JYPs low dose 1.080 g/kg/d (1st of 3 values), read-out: t1/2 (converted)
[5] = Sprague-Dawley, 2.16 g/kg/day, oral JYPs medium dose 2.160 g/kg/d (2nd of 3 values)
[6] = Sprague-Dawley, 2.16 g/kg/day, oral JYPs medium dose 2.160 g/kg/d (2nd of 3 values), read-out: t1/2 (converted)
[7] = Sprague-Dawley, 4.32 g/kg/day, oral JYPs high dose 4.320 g/kg/d (3rd of 3 values)
[8] = Sprague-Dawley, 4.32 g/kg/day, oral JYPs high dose 4.320 g/kg/d (3rd of 3 values), read-out: t1/2 (converted)
[9] = Sprague-Dawley, 1.08 g/kg/day, oral JYPs low dose 1.080 g/kg/d (1st of 3 values), read-out: Tmax
[10] = Sprague-Dawley, 2.16 g/kg/day, oral JYPs medium dose 2.160 g/kg/d (2nd of 3 values), read-out: Tmax
[11] = oral JYPs high dose 4.320 g/kg/d (3rd of 3 values)
[12] = oral JYPs low dose 1.080 g/kg/d (1st of 3 values)
[13] = oral JYPs medium dose 2.160 g/kg/d (2nd of 3 values)
[14] = Sprague-Dawley, 4.32 g/kg/day, oral JYPs high dose 4.320 g/kg/d (3rd of 3 values), read-out: Tmax

half-life [1] | Tmax [2] | AUC(0-inf) [3] | AUC(0-t) [3] | Cmax [3] | MRT inf [3] | half-life [4] | AUC(0-t) [5] | Cmax [5] | MRT last [5] | MRT inf [5] | half-life [6] | AUC(0-inf) [7] | AUC(0-t) [7] | Cmax [7] | MRT last [7] | MRT inf [7] | half-life [8] | Tmax [9] | Tmax [10] | Structure (SMILES) | also measured
7.52 to 13.7 h | < 1 h | 135 ± 49.8 ng·h/mL | 120 ± 40.6 ng·h/mL | 38.9 ± 10.4 ng/mL | 9.57 ± 3.88 h | 7.52 ± 2.66 h | 149 ± 49.5 ng·h/mL | 47.4 ± 11.7 ng/mL | 6.42 ± 0.6 h | 13.3 ± 9.41 h | 10.8 ± 9.21 h | 245 ± 44.7 ng·h/mL | 221 ± 42.5 ng·h/mL | 67.4 ± 14.2 ng/mL | 6.07 ± 1.19 h | 9.11 ± 3.69 h | 7.8 ± 3.3 h | 0.53 ± 0.22 h | 0.39 ± 0.17 h | C[C@H]1O[C@@H](O[C@H]2CC[C@@]3(C)[C@@H](CC[C@]4(C)[C@@H]3C=C[C@]35OC[C@@]6(CCC(C)(C)C[C@H]63)[C@@H](O)C[C@]54C)[C@]2(C)CO)[C@H](O)[C@@H](O[C@@H]2O[C@H](CO)[C@@H](O)[C@H](O)[C@H]2O)[C@H]1O [Saikosaponin A] | AUMC(0-t) [11]: 1333.05± 317.31 ng/mL*(h)²; AUMC(0-ꝏ) [11]: 2265.45± 1085.76 ng/mL*(h)²; Clearances [11]: 4464.90 ± 760.17 mL/h; AUMC(0-t) [12]: 792.28± 390.55 ng/mL*(h)²; AUMC(0-ꝏ) [12]: 1355.37± 1006.84 ng/mL*(h)²; MRT(0-t) [12]: 6.55 ± 1.64 h; Vss [12]: 21125.87 ± 12315.99 mL; AUC(0-∞) [13]: 177.04 ± 46.52 ng·h/mL; AUMC(0-t) [13]: 935.87± 261.97 ng/mL*(h)²; AUMC(0-ꝏ) [13]: 2307.92± 1659.75 ng/mL*(h)²; Clearances [13]: 3201.17 ± 894.28 mL/h; Vss [13]: 42581.43 ± 30523.07 mL
7.52 to 13.7 h | < 1 h | 97.3 ± 56.5 ng·h/mL | 79.6 ± 44.6 ng·h/mL | 21.5 ± 5.52 ng/mL | 13.4 ± 4.81 h | 11.4 ± 4.14 h | 96.8 ± 29.3 ng·h/mL | 30.1 ± 6.87 ng/mL | 6.87 ± 0.65 h | 13.3 ± 6.43 h | 10.9 ± 6.69 h | 157 ± 34.9 ng·h/mL | 116 ± 12.3 ng·h/mL | 41.8 ± 17.7 ng/mL | 7.1 ± 1.12 h | 16.6 ± 6.52 h | 13.7 ± 5.61 h | 0.43 ± 0.23 h | 0.54 ± 0.1 h | C[C@H]1O[C@@H](O[C@H]2CC[C@@]3(C)[C@@H](CC[C@]4(C)[C@@H]3C=C[C@]35OC[C@@]6(CCC(C)(C)C[C@H]63)[C@H](O)C[C@]54C)[C@]2(C)CO)[C@H](O)[C@@H](O[C@@H]2O[C@H](CO)[C@@H](O)[C@H](O)[C@H]2O)[C@H]1O [Saikosaponin D] | MRT last [3]: 7.08 ± 1.57 h; AUC(0-inf) [5]: 117 ± 33.2 ng·h/mL; Tmax [14]: 0.33 ± 0.13 h; AUMC(0-t) [11]: 830.12± 197.07 ng/mL*(h)²; AUMC(0-ꝏ) [11]: 2785.93± 1472.47 ng/mL*(h)²; Vss [11]: 68432.42 ± 15413.77 mL; AUMC(0-t) [12]: 592.40± 473.29 ng/mL*(h)²; AUMC(0-ꝏ) [12]: 1331.60± 1006.07 ng/mL*(h)²; Clearances [12]: 2081.51 ± 796.95 mL/h; Vss [12]: 27762.67 ± 16738.07 mL; AUMC(0-t) [13]: 662.12± 211.50 ng/mL*(h)²; AUMC(0-ꝏ) [13]: 1586.66± 988.85 ng/mL*(h)²; Vss [13]: 41378.73 ± 24017.48 mL
14.4 to 24 h | < 2 h | 40.8 ± 9.33 ng·h/mL | 28.7 ± 8.22 ng·h/mL | 3.37 ± 1.11 ng/mL | 20.4 ± 8.24 h | 15.4 ± 5.99 h | 32.7 ± 6.04 ng·h/mL | 4.47 ± 1.9 ng/mL | 8.96 ± 0.63 h | 32 ± 20.9 h | 24 ± 16.9 h | 53.4 ± 9.38 ng·h/mL | 36.5 ± 7.42 ng·h/mL | 5.27 ± 1.27 ng/mL | 8.76 ± 0.37 h | 21.6 ± 6.2 h | 16.4 ± 5.4 h | 1.67 ± 0.52 h | 1.17 ± 0.41 h | CCC/C=C1\OC(=O)C2=C1CCC=C2 [Z-Ligustilide] | MRT last [3]: 8.54 ± 1.12 h; AUC(0-inf) [5]: 58.6 ± 20.7 ng·h/mL; Tmax [14]: 1.13 ± 0.44 h; AUMC(0-t) [11]: 319.41± 64.35 ng/mL*(h)²; AUMC(0-ꝏ) [11]: 1163.41± 438.24 ng/mL*(h)²; AUMC(0-t) [12]: 244.45± 72.75 ng/mL*(h)²; AUMC(0-ꝏ) [12]: 839.61± 369.47 ng/mL*(h)²; AUMC(0-t) [13]: 291.74± 50.18 ng/mL*(h)²; AUMC(0-ꝏ) [13]: 2206.47± 2197.92 ng/mL*(h)²
